Measured values: PubChem BioAssay (NCI)
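Cells were grown in 96-well plates and exposed to each compound for 48 hours at five concentrations; endpoints were interpolated linearly between bracketing concentrations, or set to the highest concentration if not reached. GI50 marks 50% less growth. At the TGI there is no net growth.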

What was measured:
Experiment in all cases: inhibition of tumour cell growth, NCI panel, 48 h
[1] = test system: ACHN renal
[2] = test system: DLD-1 colon
[3] = test system: HCC-2998 colon
[4] = test system: NCI-H226 lung
[5] = test system: NCI-H23 lung
[6] = test system: SNB-75 CNS
[7] = test system: SW-620 colon
[8] = test system: DU-145 prostate
[9] = test system: T-47D breast

CCC1CN2CCc3cc(OC)c(OC)cc3C2CC1CC1c2cc(OC)c(OC)cc2CCN1C(=O)C1CCCN1 (configuration not stated)
TGI [1]: > 100 µM | TGI [2]: 77.4 µM | TGI [3]: 58.6 µM | TGI [4]: 96.7 µM | TGI [5]: > 100 µM | TGI [6]: > 100 µM | TGI [7]: > 100 µM

CCCCCCCCCCNC(=O)CI
GI50 [1]: 1650 nM | TGI [1]: 3.08 µM | GI50 [8]: 1950 nM | TGI [8]: 3.72 µM | GI50 [3]: 3.53 µM | TGI [3]: 11.5 µM | GI50 [4]: 2190 nM | TGI [4]: 8.84 µM | GI50 [5]: 929 nM | TGI [5]: 2.74 µM | GI50 [6]: 1640 nM | TGI [6]: 3.09 µM | GI50 [7]: 1770 nM | TGI [7]: 3.65 µM | GI50 [9]: 829 nM | TGI [9]: 2.41 µM

CC1(C)CN=C(NN=C(/C=C/c2ccc(C(F)(F)F)cc2)/C=C/c2ccc(C(F)(F)F)cc2)NC1
GI50 [1]: 1190 nM | TGI [1]: 2.48 µM | GI50 [8]: 1040 nM | TGI [8]: 2.22 µM | GI50 [3]: 1.41 µM | TGI [3]: 2.92 µM | GI50 [4]: 1510 nM | TGI [4]: 3.27 µM | GI50 [5]: 1560 nM | TGI [5]: 3.23 µM | GI50 [6]: 1560 nM | TGI [6]: 2.95 µM | GI50 [7]: 1140 nM | TGI [7]: 2.66 µM | GI50 [9]: 1490 nM | TGI [9]: 3.03 µM

O=C(/C=C/c1ccccc1)c1ccccc1
TGI [1]: > 10 µM | TGI [8]: > 10 µM | TGI [3]: > 10 µM | TGI [4]: > 10 µM | TGI [5]: > 10 µM | TGI [6]: > 10 µM | TGI [7]: > 10 µM | TGI [9]: > 10 µM

N[C@H](CCC(=O)N[C@@H](Cc1c[nH]c2ccccc12)C(=O)O)C(=O)O
GI50 [1]: > 100000 nM | TGI [1]: > 100 µM | GI50 [8]: > 100000 nM | TGI [8]: > 100 µM | GI50 [3]: > 100 µM | TGI [3]: > 100 µM | GI50 [4]: > 100000 nM | TGI [4]: > 100 µM | GI50 [5]: > 100000 nM | TGI [5]: > 100 µM | GI50 [6]: > 100000 nM | TGI [6]: > 100 µM | GI50 [7]: > 100000 nM | TGI [7]: > 100 µM | GI50 [9]: > 100000 nM | TGI [9]: > 100 µM

Nc1cc(Br)c(-c2nnc(CCC(=O)c3nc4ccccc4[nH]3)o2)c(Br)c1
GI50 [1]: 48000 nM | TGI [1]: > 100 µM | GI50 [8]: 5400 nM | TGI [8]: 53.5 µM | GI50 [3]: 11 µM | TGI [3]: 42.5 µM | GI50 [4]: 22600 nM | TGI [4]: > 100 µM | GI50 [5]: 3260 nM | TGI [5]: 36.4 µM | GI50 [6]: 2960 nM | TGI [6]: 20.5 µM | GI50 [7]: 3280 nM | TGI [7]: > 100 µM | GI50 [9]: 23400 nM | TGI [9]: > 100 µM

CCC/C=C/C=C/C1CC(O)C(O)C(=O)C1CO (configuration not stated)
TGI [1]: > 100 µM | TGI [8]: > 100 µM | TGI [3]: > 100 µM | TGI [4]: > 100 µM | TGI [5]: > 100 µM | TGI [6]: > 100 µM | TGI [7]: > 100 µM | TGI [9]: > 100 µM
